{
  "source": "patent US10882817B2",
  "about": "“Acetylsalicylic acid derivative crystal, its preparation method and use” (Zhejiang Yuejia Pharmaceuticals Co., Ltd, priority 2015, dated 2021)",
  "experiment": "Stability test of 2-(diethylamino)ethyl 2-acetoxybenzoate hydrochloride crystal",
  "type": "physicochemical",
  "conditions": "for pH value / Other related substances / Related substances 2-(diethylamino)ethyl-salicylate hydrochloride / Related substances Acetylsalicylic acid / Related substances Salicylic acid / Content: stored at 25° C.±2° C.; for pH value: 1.0 g sample in 50 mL water, filtrate; for Other related substances / Related substances 2-(diethylamino)ethyl-salicylate hydrochloride / Related substances Acetylsalicylic acid / Related substances Salicylic acid: HPLC; for Content: HPLC external standard method",
  "protocol": "The 2-(diethylamino)ethyl 2-acetoxybenzoate hydrochloride crystals obtained in Example 1 is taken and placed under the conditions of 25° C.±2° C., and sampling is carried out at month 0, month 3, month 6, month 9, and month 12, respectively, followed by the detection of the pH value, related substances and their contents. In the process, the pH value is obtained by taking about 1.0 g of a sample, adding 50 mL of water, shaking for 10 minutes, filtration, taking 10 mL of a subsequent filtrate and detection with a pH meter; and the related substances and the contents are both detected by high performance liquid chromatography (an external standard method).",
  "data": [
    {"smiles": "CCN(CC)CCOC(=O)c1ccccc1OC(C)=O.Cl", "note": "[2-(diethylamino)ethyl 2-acetoxybenzoate hydrochloride]", "values": [
      {"measurement": "stability", "setting": "after having been stored at 25° C.±2° C. for 12 months", "result": "very good stability"},
      {"measurement": "pH value", "setting": "Month 0", "result": 4.82},
      {"measurement": "Other related substances", "setting": "Month 0", "result": "Not detected"},
      {"measurement": "Related substances 2-(diethylamino)ethyl-salicylate hydrochloride", "setting": "Month 0", "result": 0.58, "unit": "%"},
      {"measurement": "Related substances Acetylsalicylic acid", "setting": "Month 0", "result": 0.0059, "unit": "%"},
      {"measurement": "Related substances Salicylic acid", "setting": "Month 0", "result": "Not detected"},
      {"measurement": "Content", "setting": "Month 0", "result": 99.58, "unit": "%"},
      {"measurement": "pH value", "setting": "Month 3", "result": 4.83},
      {"measurement": "Other related substances", "setting": "Month 3", "result": "Not detected"},
      {"measurement": "Related substances 2-(diethylamino)ethyl-salicylate hydrochloride", "setting": "Month 3", "result": 0.65, "unit": "%"},
      {"measurement": "Related substances Acetylsalicylic acid", "setting": "Month 3", "result": 0.0063, "unit": "%"},
      {"measurement": "Related substances Salicylic acid", "setting": "Month 3", "result": 0.00254, "unit": "%"},
      {"measurement": "Content", "setting": "Month 3", "result": 99.51, "unit": "%"},
      {"measurement": "pH value", "setting": "Month 6", "result": 4.81},
      {"measurement": "Other related substances", "setting": "Month 6", "result": "Not detected"},
      {"measurement": "Related substances 2-(diethylamino)ethyl-salicylate hydrochloride", "setting": "Month 6", "result": 0.58, "unit": "%"},
      {"measurement": "Related substances Acetylsalicylic acid", "setting": "Month 6", "result": 0.0070, "unit": "%"},
      {"measurement": "Related substances Salicylic acid", "setting": "Month 6", "result": 0.00101, "unit": "%"},
      {"measurement": "Content", "setting": "Month 6", "result": 99.59, "unit": "%"},
      {"measurement": "pH value", "setting": "Month 9", "result": 4.79},
      {"measurement": "Other related substances", "setting": "Month 9", "result": "Not detected"},
      {"measurement": "Related substances 2-(diethylamino)ethyl-salicylate hydrochloride", "setting": "Month 9", "result": 0.60, "unit": "%"},
      {"measurement": "Related substances Acetylsalicylic acid", "setting": "Month 9", "result": 0.0048, "unit": "%"},
      {"measurement": "Related substances Salicylic acid", "setting": "Month 9", "result": 0.00083, "unit": "%"},
      {"measurement": "Content", "setting": "Month 9", "result": 99.57, "unit": "%"},
      {"measurement": "pH value", "setting": "Month 12", "result": 4.83},
      {"measurement": "Other related substances", "setting": "Month 12", "result": "Not detected"},
      {"measurement": "Related substances 2-(diethylamino)ethyl-salicylate hydrochloride", "setting": "Month 12", "result": 0.62, "unit": "%"},
      {"measurement": "Related substances Acetylsalicylic acid", "setting": "Month 12", "result": 0.0053, "unit": "%"},
      {"measurement": "Related substances Salicylic acid", "setting": "Month 12", "result": 0.00103, "unit": "%"},
      {"measurement": "Content", "setting": "Month 12", "result": 99.58, "unit": "%"}
    ]}
  ]
}
